Results on one molecule are retold here after patent US20220242853A1, “MODIFIED CYANINE DYES AND CONJUGATES THEREOF” (BRACCO IMAGING S.P.A., priority 2019, published 2022).

Some results are limits rather than exact numbers.

Data set [1] addresses T1, human serum albumin (HSA) (Homo sapiens, UniProt P02768).
T1 construct: purchased Sigma Aldrich A9511
Put plainly: Binding affinity to human serum albumin (absorbance peak shift or ultrafiltration method). Particulars: phosphate buffer, 25° C., one of the two methods; read-out: HSA affinity (KA) (converted). The protocol: Binding affinity to human serum albumin (HSA; Sigma Aldrich, A9511) was measured using two methods, according to the level of binding affinity of the compounds.
The first method, optimal for compounds which strongly interact with HSA, is based on the analysis of the absorbance spectrum peak shift after the incubation of the dye in solutions containing HSA. Briefly, the samples were incubated at a fixed concentration (1 μM) with HSA dilutions (1×10^−6-4×10^−4M), in phosphate buffer for 5 min in the spectrophotometer at 25° C. before measurements. The measure was performed at the maximum absorbance wavelength of the shifted peak.
The second method, optimal for compound with low affinity for HSA, is based on measuring the variation of the absorbance of solutions containing the dye and various concentrations of HSA after ultrafiltration. Briefly, each compound was incubated at a fixed concentration (2 μM) with HSA dilutions (1×10^−6-4×10^−4 M), in phosphate buffer. The samples were centrifuged (10,000 g for 30 min at 25° C.) in a Microcon device (10 kDa MWCO, Amicon Ultra-0.5 Centrifugal Filter Unit with Ultracel-10 membrane, Millipore) and the absorbance measurements of the filtrates were obtained with the spectrophotometer at the maximum absorbance wavelength of the fluorophore.
For both methods, the affinity constant (KA, M^−1) was calculated by fitting the raw data with the following formula:
wherein ΔA/b=Absorbance measured (b=1 cm) KRL=KA calculated by regression analysis (curve fitting) Δε·Rt calculated by regression analysis (curve fitting) [L]=Albumin concentration
In the first method, ΔA/b corresponds to the absorbance measured for each sample, whereas in the second method ΔA/b is obtained subtracting the absorbance of the control sample (dye without HSA) to the absorbance of each other sample.
However, the measurement of the affinity constant is more precise when the suitable method is used as a function of the affinity level of the compound.

A short description of data set [2]: Biodistribution and elimination by optical imaging after intravenous administration. The class given is in vivo, Balb/c nu/nu mice. Particulars: male, Balb/c nu/nu, mouse, in vivo, iv. The protocol: Biodistribution and elimination of the fluorescent agents of the invention was evaluated by optical imaging after intravenous administration in male Balb/c nu/nu mice, 6-10 weeks of age (Charles River Laboratories). Briefly, mice housed 4 per cage and fed with VRF1 (P) sterile diet (Special Diets Services Ltd) up to the end of the acclimation period (5 days). Then, AIN-76a rodent diet irradiated (Research Diets), a special diet that reduces auto-fluorescence, was used up to the end of the experiments. Imaging experiments were performed using the preclinical optical system IVIS Spectrum (Perkin Elmer).
In vivo imaging was performed under gas anesthesia (Sevofluorane 6-8% in oxygen). Animals were intravenously injected with the compounds and imaged longitudinally at 30 min, 1 h, 2 h, 3 h, 4 h, 6 h, and 24 h post-administration. Thus, animals were euthanized by anesthesia overdose, and the main tissues and organs of interest were excised for ex vivo optical imaging. Regions of interest (ROIs) were drawn on the tissues of interest for each fluorescence image at every time point to evaluate signal intensity (expressed as Average adiant Efficiency). The ratio between the fluorescence signal in the muscle (background tissue) and excretory organs (kidney, liver) was then calculated to assess the contrast. The tissue half-life was calculated by fitting the fluorescence signal decay in the muscle with a bi-exponential decay equation model using GraphPad Prism Software (version 5 for Windows).

The next data set deals with Detroit-562 cells. Put plainly: Tumor uptake by ex vivo optical imaging, orthotopic human head and neck cancer model. The class given is in vivo, Balb/c nu/nu mice. Particulars: ex vivo tongue, 24 hours after iv 3 nmol/mouse. The protocol: Parallel experiments were performed in an animal model of human head and neck cancer (orthotopic), using Detroit-562 cells, overexpressing in particular integrin receptor αvβ6. Briefly, the human pharyngeal carcinoma cells Detroit-562 (ATCC, CCL-138) were cultured in Eagle's Minimum Essential Medium (EMEM) supplemented with 10% Fetal Bovine Serum (FBS), 2 mM glutamine, 100 IU/mL penicillin, 100 μg/mL streptomycin. Male Balb/c nu/nu mice, 4-6 weeks of age (Charles River Laboratories), underwent orthotopic implantation in the anterior portion of the tongue of about 2.5 million cells suspended in 0.03 mL di EMEM. Mice were housed 4 per cage with food and water ad libitum. Animals were fed with VRF1 (P) sterile diet (Special Diets Services Ltd) up to the end of the acclimation period (5 days). Then, AIN-76a rodent diet irradiated (Research Diets), a special diet that reduces auto-fluorescence, was used up to the end of the experiments. Tumor growth was monitored by longitudinal assessments using a caliper up to the target size of 10-20 mm^3 (7-10 days after cell implantation).
Imaging experiments were performed using the preclinical optical system IVIS Spectrum (Perkin Elmer). Animals were intravenously injected (lateral tail vein) with 3 nmol/mouse, at 24 hours post-administration were euthanized by anesthesia overdose, and the tongues were excised for ex vivo optical imaging. […]

T1 sequence (P02768 25-609): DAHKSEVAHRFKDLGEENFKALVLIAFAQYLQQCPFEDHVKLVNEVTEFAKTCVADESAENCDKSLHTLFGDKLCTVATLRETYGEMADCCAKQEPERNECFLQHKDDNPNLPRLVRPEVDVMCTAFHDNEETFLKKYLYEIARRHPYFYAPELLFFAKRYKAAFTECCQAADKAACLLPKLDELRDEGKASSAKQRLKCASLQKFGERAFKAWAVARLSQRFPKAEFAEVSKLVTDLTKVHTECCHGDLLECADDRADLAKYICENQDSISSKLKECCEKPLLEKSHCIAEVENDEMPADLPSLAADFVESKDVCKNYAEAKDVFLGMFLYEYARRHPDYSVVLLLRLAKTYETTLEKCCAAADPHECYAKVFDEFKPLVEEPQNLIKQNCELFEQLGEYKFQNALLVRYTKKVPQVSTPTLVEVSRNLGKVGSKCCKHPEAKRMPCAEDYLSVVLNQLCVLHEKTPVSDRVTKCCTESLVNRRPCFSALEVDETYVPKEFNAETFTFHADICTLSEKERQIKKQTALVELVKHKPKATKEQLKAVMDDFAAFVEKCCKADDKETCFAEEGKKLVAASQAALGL

As for `CC(CC[N+]1=C(/C=C/C=C/C=C/C=C2/N(CCCCCC(=O)NCCCC[C@@H]3NC(=O)C(Cc4ccccc4)NC(=O)[C@H](CC(=O)O)NC(=O)CNC(=O)[C@H](CCCNC(=N)N)NC3=O)c3ccc(C(=O)NCC(O)C(O)C(O)C(O)CO)cc3C2(C)C)C(C)(C)c2cc(C(=O)NCC(O)C(O)C(O)C(O)CO)ccc21)S(=O)(=O)[O-]` (stereo partly drawn) [Compound 1], the Kd in data set [1] is 159 µM. This molecule showed a half-life in data set [2] below 1 h. In the data set on Detroit-562 cells, the Tumor-to-background contrast entry was “high tumor-to-background contrast”.

One may read the half-life as how long it takes for the measured level to halve. Read a low half-life as rapid decline.
